Test results published in paper PMC10945555, “Improving Activity of New Arylurea Agents against Multidrug-Resistant and Biofilm-Producing Staphylococcus epidermidis” (ACS Medicinal Chemistry Letters, 2024).
≈ marks a conversion by molar mass, not a printed value. Where two headings read alike, the source gives them in different places.

What was measured:
Format in all cases: cell-based
[1] = system: Staphylococcus epidermidis ATCC 12228; test: MIC, broth microdilution, MSSE reference strain; details: ATCC12228, Staphylococcus epidermidis ATCC 12228, read-out: MIC MSSE
From the text: These strains included susceptible, multidrug-resistant, and biofilm-producing strains of S. epidermidis and S. aureus (MSSE, MDR/BPSE, and MDR/BPSA, respectively). The cornerstone antibiotic linezolid served as a positive control (Table 1). The impact of structural modifications at the aryloxy fragment and the aromatic moiety bound to the propyl linker on the inhibitory activity was initially investigated. […] Further optimization focused on evaluating the impact of the type of substituent and its position on the arylsulfonamide fragment’s activity.
(§1) 2 Biological assay protocols
(§2) Microbiological tests were carried out under aseptic conditions in a laminar chamber of the 2nd […]
(§3) (BioTectum 1.2, Alchem Poland). The assessment of antimicrobial activity was carried out for final compounds in the form of free bases, soluble in DMSO (Merck, Germany), at the initial […]
(§4) concentration of 1 mg/mL. […]
were provided by Cayman Chemical, USA.
The activity of all newly synthesized compounds was tested in vitro on a panel of selected reference strains from the American Type Culture Collection (ATCC) of Gram-positive […]
(§5) 2.2 Effect of evaluated compounds on planktonic cells
(§6) The susceptibility of three reference bacterial strains (Staphylococcus epidermidis ATCC […]
(§7) Table S1) and 81 clinical MDR S. epidermidis (Table S2) to the tested compounds was assessed by determining the MIC value (Minimal Inhibitory Concentration) by microdilution in a liquid medium in 96-well flat-bottom cell culture plates (Nest Biotechnology Scientific, USA). The antibacterial properties of the compo unds were tested in the concentration range from 50 µg/mL to 0.1 µg/mL by making a series of double dilutions of the compound in liquid Mueller -Hinton II Broth Cation Adjusted (MHB II, BBL TM, USA) according to the European Committee on […]
(§8) Antimicrobial Susceptibility Testing guidelines (EUCAST).2,3 The determinations were performed twice. The MIC50 and MIC90 values were determined for each of the tested

[2] = system: clinical MDR Staphylococcus epidermidis isolates; test: MIC, broth microdilution, 81 clinical MDR strains; details: Staphylococcus epidermidis
Method: as §1, §2, §3, §4
were provided by Cayman Chemical, USA. […]
The antibacterial activity of selected compounds was also tested on a panel of 81 unrelated, multidrug -resistant clinical strains of Staphylococcus epidermidis from the own collection of the Department of Pharmaceutical Microbiology of the Jagiellonian University Medical College.
as §5, §6, §7, §8

[3] = system: Staphylococcus aureus ATCC BAA-976; test: MIC, broth microdilution, MDR/BPSA reference strain; details: ATCCBAA976; Staphylococcus aureus ATCC BAA-976; read-out: MIC MDR/BPSA
In short: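 Compounds tested as free bases dissolved in DMSO (1 mg/mL stock); determinations done twice; linezolid as positive control.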

Compound: O=S(=O)(NC1CCN(CCC(Oc2ccc(C(F)(F)F)cc2)c2cccs2)CC1)c1cccc(C(F)(F)F)c1 (centres unmarked) [Compound 21]
- MIC [1]: ≤ 6.25 µg/mL
- MIC ([2]; clinical strain 1 (Table S2), read-out: MIC): 0.8 µg/mL (≈ 1.35 µM)
- MIC ([2]; clinical strain 2 (Table S2), read-out: MIC): 6.25 µg/mL (≈ 10.5 µM)
- MIC ([2]; clinical strain 3 (Table S2), read-out: MIC): 6.25 µg/mL (≈ 10.5 µM)
- MIC ([2]; clinical strain 4 (Table S2), read-out: MIC): 50 µg/mL (≈ 84.4 µM)
- MIC ([2]; clinical strain 5 (Table S2), read-out: MIC): 1.6 µg/mL (≈ 2.7 µM)
- MIC ([2]; clinical strain 6 (Table S2), read-out: MIC): 50 µg/mL (≈ 84.4 µM)
- MIC ([2]; clinical strain 7 (Table S2), read-out: MIC): 50 µg/mL (≈ 84.4 µM)
- MIC ([2]; clinical strain 8 (Table S2), read-out: MIC): 6.25 µg/mL (≈ 10.5 µM)
- MIC ([2]; clinical strain 9 (Table S2), read-out: MIC): 3.12 µg/mL (≈ 5.27 µM)
- MIC ([2]; clinical strain 10 (Table S2), read-out: MIC): 50 µg/mL (≈ 84.4 µM)
- MIC ([2]; clinical strain 11 (Table S2), read-out: MIC): 6.25 µg/mL (≈ 10.5 µM)
- MIC ([2]; clinical strain 12 (Table S2), read-out: MIC): 50 µg/mL (≈ 84.4 µM)
- MIC ([2]; clinical strain 13 (Table S2), read-out: MIC): 50 µg/mL (≈ 84.4 µM)
- MIC ([2]; clinical strain 14 (Table S2), read-out: MIC): 50 µg/mL (≈ 84.4 µM)
- MIC ([2]; clinical strain 15 (Table S2), read-out: MIC): 50 µg/mL (≈ 84.4 µM)
- MIC ([2]; clinical strain 16 (Table S2), read-out: MIC): 50 µg/mL (≈ 84.4 µM)
- MIC ([2]; clinical strain 17 (Table S2), read-out: MIC): 50 µg/mL (≈ 84.4 µM)
- MIC ([2]; clinical strain 18 (Table S2), read-out: MIC): 50 µg/mL (≈ 84.4 µM)
- MIC ([2]; clinical strain 19 (Table S2), read-out: MIC): 50 µg/mL (≈ 84.4 µM)
- MIC ([2]; clinical strain 20 (Table S2), read-out: MIC): 3.12 µg/mL (≈ 5.27 µM)
- MIC ([2]; clinical strain 21 (Table S2), read-out: MIC): 3.12 µg/mL (≈ 5.27 µM)
- MIC ([2]; clinical strain 22 (Table S2), read-out: MIC): 6.25 µg/mL (≈ 10.5 µM)
- MIC ([2]; clinical strain 23 (Table S2), read-out: MIC): 0.8 µg/mL (≈ 1.35 µM)
- MIC ([2]; clinical strain 24 (Table S2), read-out: MIC): 3.12 µg/mL (≈ 5.27 µM)
- MIC ([2]; clinical strain 25 (Table S2), read-out: MIC): 50 µg/mL (≈ 84.4 µM)
- MIC ([2]; clinical strain 26 (Table S2), read-out: MIC): 50 µg/mL (≈ 84.4 µM)
- MIC ([2]; clinical strain 27 (Table S2), read-out: MIC): 0.8 µg/mL (≈ 1.35 µM)
- MIC ([2]; clinical strain 28 (Table S2), read-out: MIC): 50 µg/mL (≈ 84.4 µM)
- MIC ([2]; clinical strain 29 (Table S2), read-out: MIC): 50 µg/mL (≈ 84.4 µM)
- MIC ([2]; clinical strain 30 (Table S2), read-out: MIC): 50 µg/mL (≈ 84.4 µM)
- MIC ([2]; clinical strain 31 (Table S2), read-out: MIC): 50 µg/mL (≈ 84.4 µM)
- MIC ([2]; clinical strain 32 (Table S2), read-out: MIC): 50 µg/mL (≈ 84.4 µM)
- MIC ([2]; clinical strain 33 (Table S2), read-out: MIC): 50 µg/mL (≈ 84.4 µM)
- MIC ([2]; clinical strain 34 (Table S2), read-out: MIC): 50 µg/mL (≈ 84.4 µM)
- MIC ([2]; clinical strain 35 (Table S2), read-out: MIC): 25 µg/mL (≈ 42.2 µM)
- MIC ([2]; clinical strain 36 (Table S2), read-out: MIC): 50 µg/mL (≈ 84.4 µM)
- MIC ([2]; clinical strain 37 (Table S2), read-out: MIC): 50 µg/mL (≈ 84.4 µM)
- MIC ([2]; clinical strain 38 (Table S2), read-out: MIC): 50 µg/mL (≈ 84.4 µM)
- MIC ([2]; clinical strain 39 (Table S2), read-out: MIC): 50 µg/mL (≈ 84.4 µM)
- MIC ([2]; clinical strain 40 (Table S2), read-out: MIC): 50 µg/mL (≈ 84.4 µM)
- MIC ([2]; clinical strain 41 (Table S2), read-out: MIC): 50 µg/mL (≈ 84.4 µM)
- MIC ([2]; clinical strain 42 (Table S2), read-out: MIC): 6.25 µg/mL (≈ 10.5 µM)
- MIC ([2]; clinical strain 43 (Table S2), read-out: MIC): 6.25 µg/mL (≈ 10.5 µM)
- MIC ([2]; clinical strain 44 (Table S2), read-out: MIC): 50 µg/mL (≈ 84.4 µM)
- MIC ([2]; clinical strain 45 (Table S2), read-out: MIC): 50 µg/mL (≈ 84.4 µM)
- MIC ([2]; clinical strain 46 (Table S2), read-out: MIC): 50 µg/mL (≈ 84.4 µM)
- MIC ([2]; clinical strain 47 (Table S2), read-out: MIC): 50 µg/mL (≈ 84.4 µM)
- MIC ([2]; clinical strain 48 (Table S2), read-out: MIC): 50 µg/mL (≈ 84.4 µM)
- MIC ([2]; clinical strain 49 (Table S2), read-out: MIC): 50 µg/mL (≈ 84.4 µM)
- MIC ([2]; clinical strain 50 (Table S2), read-out: MIC): 50 µg/mL (≈ 84.4 µM)
- MIC ([2]; clinical strain 51 (Table S2), read-out: MIC): 50 µg/mL (≈ 84.4 µM)
- MIC ([2]; clinical strain 52 (Table S2), read-out: MIC): 50 µg/mL (≈ 84.4 µM)
- MIC ([2]; clinical strain 53 (Table S2), read-out: MIC): 50 µg/mL (≈ 84.4 µM)
- MIC ([2]; clinical strain 54 (Table S2), read-out: MIC): 50 µg/mL (≈ 84.4 µM)
- MIC ([2]; clinical strain 55 (Table S2), read-out: MIC): 50 µg/mL (≈ 84.4 µM)
- MIC ([2]; clinical strain 56 (Table S2), read-out: MIC): 50 µg/mL (≈ 84.4 µM)
- MIC ([2]; clinical strain 57 (Table S2), read-out: MIC): 50 µg/mL (≈ 84.4 µM)
- MIC ([2]; clinical strain 58 (Table S2), read-out: MIC): 50 µg/mL (≈ 84.4 µM)
- MIC ([2]; clinical strain 59 (Table S2), read-out: MIC): 50 µg/mL (≈ 84.4 µM)
- MIC ([2]; clinical strain 60 (Table S2), read-out: MIC): 50 µg/mL (≈ 84.4 µM)
- MIC ([2]; clinical strain 61 (Table S2), read-out: MIC): 50 µg/mL (≈ 84.4 µM)
- MIC ([2]; clinical strain 62 (Table S2), read-out: MIC): 50 µg/mL (≈ 84.4 µM)
- MIC ([2]; clinical strain 63 (Table S2), read-out: MIC): 50 µg/mL (≈ 84.4 µM)
- MIC ([2]; clinical strain 64 (Table S2), read-out: MIC): 50 µg/mL (≈ 84.4 µM)
- MIC ([2]; clinical strain 65 (Table S2), read-out: MIC): 3.12 µg/mL (≈ 5.27 µM)
- MIC ([2]; clinical strain 66 (Table S2), read-out: MIC): 3.12 µg/mL (≈ 5.27 µM)
- MIC ([2]; clinical strain 67 (Table S2), read-out: MIC): 50 µg/mL (≈ 84.4 µM)
- MIC ([2]; clinical strain 68 (Table S2), read-out: MIC): 50 µg/mL (≈ 84.4 µM)
- MIC ([2]; clinical strain 69 (Table S2), read-out: MIC): 50 µg/mL (≈ 84.4 µM)
- MIC ([2]; clinical strain 70 (Table S2), read-out: MIC): 50 µg/mL (≈ 84.4 µM)
- MIC ([2]; clinical strain 71 (Table S2), read-out: MIC): 50 µg/mL (≈ 84.4 µM)
- MIC ([2]; clinical strain 72 (Table S2), read-out: MIC): 50 µg/mL (≈ 84.4 µM)
- MIC ([2]; clinical strain 73 (Table S2), read-out: MIC): 50 µg/mL (≈ 84.4 µM)
- MIC ([2]; clinical strain 74 (Table S2), read-out: MIC): 50 µg/mL (≈ 84.4 µM)
- MIC ([2]; clinical strain 75 (Table S2), read-out: MIC): 50 µg/mL (≈ 84.4 µM)
- MIC ([2]; clinical strain 76 (Table S2), read-out: MIC): 50 µg/mL (≈ 84.4 µM)
- MIC ([2]; clinical strain 77 (Table S2), read-out: MIC): 1.6 µg/mL (≈ 2.7 µM)
- MIC ([2]; clinical strain 78 (Table S2), read-out: MIC): 50 µg/mL (≈ 84.4 µM)
- MIC ([2]; clinical strain 79 (Table S2), read-out: MIC): 50 µg/mL (≈ 84.4 µM)
- MIC ([2]; clinical strain 80 (Table S2), read-out: MIC): 50 µg/mL (≈ 84.4 µM)
- MIC ([2]; clinical strain 81 (Table S2), read-out: MIC): 50 µg/mL (≈ 84.4 µM)
- MIC ([2]; mean of MIC values against clinical MDR-SE isolates, read-out: mean MIC): 39.4 µg/mL (≈ 66.5 µM)
- MIC50 ([2]; 81 clinical strains, concentration inhibiting growth of 50% clinical isolates): 50 µg/mL (≈ 84.4 µM)
- MIC90 ([2]; 81 clinical strains, concentration inhibiting growth of 90% of clinical isolates): 50 µg/mL (≈ 84.4 µM)
- MIC [3]: 50 µg/mL (≈ 84.4 µM)
